Laboratory results published in paper PMC10412636, “An analysis of interactions between three structurally diverse anthocyanidins, as well as their glucosides, and model biological membranes, albumin, and plasmid DNA” (Scientific Reports, 2023).

How the values were obtained:
HSA = system: HSA; set-up: method as in earlier work; conditions: cited from earlier work
[1] = TMA-DPH probe fluorescence anisotropy in RBCM liposomes; set-up: species or system human; conditions: negative = increase in anisotropy
Text: Two types of liposomes were used to study interactions with biological membranes: liposomes mimicking the composition of cancer cell membranes (mimic membrane liposome—MM) and liposomes formed from lipids extracted from human blood erythrocyte membranes (red blood cell membrane liposome—RBCM). […] The RBCM liposome was according to the methodology described previously[42] with minor modifications[43]. Both lipids, dissolved in chloroform (MM liposome) and n-decane (RBCM liposome), were evaporated under a nitrogen atmosphere, and then dried in a desiccator for 90 min under a vacuum. The obtained dry lipid film was hydrated in phosphate buffer, pH 7.4, obtaining a concentration of 0.1 mg/ml, and then vortexed for one minute until a homogeneous, milky suspension was observed. The mixture was sonicated (Sonic, Milano, Italia) for 15 min keeping the sample in a bath of ice water, thus providing a cooling temperature of 0 °C. The suspension was then processed (extrusion) through polycarbonate filters with pore diameters of 100 and 200 nm using a Lipex extruder (Evonik). Liposomes, which had been prepared according to this procedure, was used in fluorimetric studies.
To investigate these properties three fluorescent probes were used: MC540, TMA-DPH, and DPH. MC540 localizes to the outer, hydrophilic part of the membrane, within the region of the glycerol skeleton[44]. […] The TMA-DPH and DPH probes are supposed to locate nearer to the interface and in the hydrophobic region, respectively[45]. The measurement of changes in the anisotropy of the TMA-DPH and DPH probes allowed us to reflect the mobility of the fluorescent probes in the membrane, and therefore to determine the fluidity of the bilayer[46]. Fluorescence anisotropy was calculated using the formula[47]:1 A=I‖-GI⊥/I‖+2GI⊥ where I‖ and I⊥ are the intensity of fluorescence in parallel and perpendicular directions, to the plane of polarization of the excitation wave, respectively. G is an apparatus constant that depends on the emission wavelength.
(§1) Liposomes (the concentration of lipids in the sample was 0.1 mg/ml) were incubated for 30 min with the appropriate probe (dissolved in DMF, 1 µM concentration), and then the tested anthocyanins were added (final concentration of 1 to 30 µM). The control sample consisted of liposomes and a fluorescent probe. Fluorescence was measured on a fluorimeter (Cary Eclipse, Varian, San Diego, USA) at 37 °C. The excitation wavelengths λex and emission wavelengths λem respectively: MC540—λexc = 540 nm, λem = 590 nm; DPH—λexc = 360 nm, λem = 425 nm. nm; TMA-DPH—λexc = 340 nm, λem = 430 nm.

[2] = DPH fluorescence quenching, dissociation constant with MM liposome membrane; format: binding; conditions: 37 °C
Method: (§2) Two types of liposomes were used to study interactions with biological membranes: liposomes mimicking the composition of cancer cell membranes (mimic membrane liposome—MM) and liposomes formed from lipids extracted from human blood erythrocyte membranes (red blood cell membrane liposome—RBCM). […] Both lipids, dissolved in chloroform (MM liposome) and n-decane (RBCM liposome), were evaporated under a nitrogen atmosphere, and then dried in a desiccator for 90 min under a vacuum. The obtained dry lipid film was hydrated in phosphate buffer, pH 7.4, obtaining a concentration of 0.1 mg/ml, and then vortexed for one minute until a homogeneous, milky suspension was observed. The mixture was sonicated (Sonic, Milano, Italia) for 15 min keeping the sample in a bath of ice water, thus providing a cooling temperature of 0 °C. The suspension was then processed (extrusion) through polycarbonate filters with pore diameters of 100 and 200 nm using a Lipex extruder (Evonik). Liposomes, which had been prepared according to this procedure, was used in fluorimetric studies.
(§3) The phenomenon of quenching the fluorescence of the DPH probe by biologically active substances enabled us to evaluate the partition coefficient (Kd, dissociation constant) of anthocyanins with both MM and RBCM liposome membranes. For this purpose, changes in the fluorescence intensity of this probe were checked and the coefficient was calculated using the equation[48]:2 1/F0/F-1=Kd/[liposomes]×1/[anthocyanins]+1/liposomes where F0—fluorescence intensity in the absence of anthocyanins (control sample), F—fluorescence intensity in the presence of anthocyanins, [liposomes]—concentration of liposomes in mg/ml, [anthocyanins]—concentration of anthocyanins tested mg/ml.
as §1

[3] = MC540 probe fluorescence intensity in RBCM liposomes; set-up: species or system human; conditions: 37 °C, positive = decrease
Method: as §2
(§4) To investigate these properties three fluorescent probes were used: MC540, TMA-DPH, and DPH. MC540 localizes to the outer, hydrophilic part of the membrane, within the region of the glycerol skeleton[44]. Changes in the fluorescence intensity of this probe were formulated as the relative change in intensity to the control as a function of anthocyanins concentration. The TMA-DPH and DPH probes are supposed to locate nearer to the interface and in the hydrophobic region, respectively[45]. The measurement of changes in the anisotropy of the TMA-DPH and DPH probes allowed us to reflect the mobility of the fluorescent probes in the membrane, and therefore to determine the fluidity of the bilayer[46]. Fluorescence anisotropy was calculated using the formula[47]:1 A=I‖-GI⊥/I‖+2GI⊥ where I‖ and I⊥ are the intensity of fluorescence in parallel and perpendicular directions, to the plane of polarization of the excitation wave, respectively. G is an apparatus constant that depends on the emission wavelength.
as §1

[4] = TMA-DPH probe fluorescence anisotropy in MM liposomes; conditions: negative = increase in anisotropy
Method: as §2, §4, §1

[5] = biological target: human serum albumin (HSA) (Homo sapiens, UniProt P02768); assay: Quenching of natural fluorescence of human serum albumin; format: binding; conditions: HSA […] 10^–5 M, 37 °C
Chain of human serum albumin (HSA) (P02768 25-609): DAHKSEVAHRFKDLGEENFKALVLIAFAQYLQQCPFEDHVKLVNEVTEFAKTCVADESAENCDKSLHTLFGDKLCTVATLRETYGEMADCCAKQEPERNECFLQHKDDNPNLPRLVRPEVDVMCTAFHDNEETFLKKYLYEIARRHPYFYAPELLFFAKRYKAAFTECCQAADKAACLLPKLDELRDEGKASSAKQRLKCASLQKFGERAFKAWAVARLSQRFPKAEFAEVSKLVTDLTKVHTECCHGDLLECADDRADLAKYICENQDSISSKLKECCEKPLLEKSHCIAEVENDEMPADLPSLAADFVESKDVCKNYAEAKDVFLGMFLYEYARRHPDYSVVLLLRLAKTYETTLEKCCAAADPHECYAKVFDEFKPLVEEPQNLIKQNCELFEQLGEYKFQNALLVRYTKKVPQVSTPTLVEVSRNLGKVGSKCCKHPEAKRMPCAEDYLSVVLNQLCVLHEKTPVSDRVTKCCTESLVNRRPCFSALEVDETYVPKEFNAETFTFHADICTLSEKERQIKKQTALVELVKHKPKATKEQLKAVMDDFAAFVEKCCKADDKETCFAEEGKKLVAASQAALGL
Method: The phenomenon of quenching the natural fluorescence of human serum albumin (HSA) was used to investigate the potential interaction of anthocyanins with this protein. […] Anthocyanins with concentrations ranging from 1 to 30 µM were added to HSA dissolved in phosphate buffer (1.5 × 10^–5 M) and then incubated at 37 °C for 20 min. Emission spectra were performed on a fluorimeter Cary Eclipse (Varian, San Diego, USA) at 37 °C. HSA fluorescence was excited with a wavelength of λ = 280 nm, the emission was measured in the range from 286 to 460 nm, and the fluorescence intensity was read at 345 nm where the emission maximum of HSA was located.
The Stern–Volmer equation was used to thoroughly describe the quenching mechanism of natural fluorescence and to determine the bindings parameters of HSA: anthocyanin complexes:4 F0/F=1+Kqτ0Q=1+KSV[Q] where F0—fluorescence intensity in the absence of anthocyanins (control sample), F—fluorescence intensity in the presence of anthocyanins, KSV—Stern–Volmer quenching constant (KSV = Kq·τ0), [Q]—concentration of quencher (tested compound), Kq—bimolecular quenching constant, τ0—a lifetime of the fluorophore in the absence of quencher the fluorescence lifetime of a biopolymer is calculated as 5 × 10^–9 s[51].
The apparent binding constants (Kb) and the number of binding sites (n) can be calculated using the following equation:5 log(F0-F/F]=logKb+nlog[Q]
F0 and F are the fluorescence intensities before and after the addition of the quencher. From the linear plot of log (F0 − F)/F versus log [Q], the value of Kb was obtained from the intercept.

[6] = MC540 probe fluorescence intensity in MM liposomes; conditions: 37 °C, positive = decrease
Method: as §2, §4, §1

[7] = DPH probe fluorescence anisotropy in RBCM liposomes; set-up: species or system human; conditions: for Changes in DPH anisotropy relative to the control: RBCM, negative = increase in anisotropy
Method: as §2, §4, §1

[8] = DPH probe fluorescence anisotropy in MM liposomes; conditions: for Changes in DPH anisotropy relative to the control: MM, negative = increase in anisotropy
Method: as §2, §4, §1

[9] = DPH fluorescence quenching, dissociation constant with RBCM liposome membrane; format: binding, human; conditions: 37 °C
Method: as §2, §3, §1

pHbApr-1-Neo plasmid DNA = assay: TCSPC-FCS of PicoGreen-labelled plasmid DNA with anthocyanins; format: binding; conditions: for decrease in the diffusion time (tD): tested range of comp/bp from 0 to 5
Method: To evaluate the biological interaction with DNA molecules the anthocyanins were initially dissolved in ETOH (1 mM). […] Mixing of such solutions with the aqueous DNA solutions used in the studies never exceeded 1% concentration ETOH (v/v) in the final solution. The DNA plasmid was labelled by PicoGreen (CPicoGreen/CDNAbp = 0.02)[52]. The pHbApr-1-Neo plasmid (10 kbp and contour length 3.4 µm) was a generous gift from the laboratory of Prof. Maciej Ugorski (Department of Biochemistry and Molecular Biology, Wrocław University of Environmental and Life Sciences Wroclaw, Poland). PicoGreen-labelled DNA samples mixed with the appropriate amount of anthocyanins were left overnight and then measured. The increasing concentration of anthocyanins in the tested samples was expressed as the ratio of the molar concentration of anthocyanins per molar concentration of DNA base pairs in a given sample (comp/bp). The 100 µl samples were measured in Ibidi 8-well chambers. Each point on the graph is a single sample (average of 10 measurements). All measurements were performed at room temperature (25 °C). Time-correlated single-photon counting fluorescence correlation spectroscopy (TCSPC-FCS) was used to study the interaction of plasmid DNA at the single molecule level with all tested anthocyanins. […] Low power of 1uW (at the back aperture of the objective) was chosen to minimize photobleaching and saturation. In the detection plane, a pinhole (50um in diameter) was used and the signal was collected by a single photon avalanche diode (SPAD, Microphoton Devices, Bolzano, Italy). Photon arrival times were stored using fast electronics (Picoharp 300, PicoQuant) in time-tagged time-resolved recording mode. Two independent times were assigned to each detected photon: (1) a time after the beginning of the measurement and (2) a time after the previous laser pulse. The FCS data analysis was done using home-built routines (DevC++, Bloodshed Software and OriginPro70, OriginLab Corporation). The TCSPC data analysis was performed using SymPhoTime software (PicoQuant). Further details of the data evaluation are given elsewhere.

[10] = 30 µM, listed as delphinidin glucoside

OCC1OC(Oc2cc3c(O)cc(O)cc3[o+]c2-c2cc(O)c(O)c(O)c2)C(O)C(O)C1O (centres unmarked) [Dp 3-glc, Delphinidin 3-O-glucoside]
affinity for HSA compared to aglycone (HSA): tenfold lower | Changes in TMA-DPH anisotropy relative to the control ([1]; 1 µM): -2.73±0.14% | Changes in TMA-DPH anisotropy relative to the control ([1]; 5 µM): -0.01±0.00% | Changes in TMA-DPH anisotropy relative to the control ([1]; 10 µM): 2.57±0.07% | Changes in TMA-DPH anisotropy relative to the control ([1]; 20 µM): 2.52±0.16% | Changes in TMA-DPH anisotropy relative to the control ([1]; 30 µM): 1.15±0.03% | Kd [2]: 93.6 ± 19.5 µM | Changes in MC540 fluorescence intensity relative to the control ([3]; 1 µM): 11.73±0.51% | Changes in MC540 fluorescence intensity relative to the control ([3]; 5 µM): 17.29±0.54% | Changes in MC540 fluorescence intensity relative to the control ([3]; 10 µM): 22.06±1.25% | Changes in MC540 fluorescence intensity relative to the control ([3]; 20 µM): 36.70±4.24% | Changes in MC540 fluorescence intensity relative to the control ([3]; 30 µM): 47.56±9.12% | Changes in MC540 fluorescence intensity relative to the control [3, 10]: 47.6 ± 9.1% | Changes in TMA-DPH anisotropy relative to the control ([4]; 1 µM): -4.62±0.05% | Changes in TMA-DPH anisotropy relative to the control ([4]; 5 µM): -1.60±0.04% | Changes in TMA-DPH anisotropy relative to the control ([4]; 10 µM): 0.26±0.005% | Changes in TMA-DPH anisotropy relative to the control ([4]; 20 µM): 1.99±0.06% | Changes in TMA-DPH anisotropy relative to the control ([4]; 30 µM): 0.41±0.01% | Stern Volmer constant KSV [5]: 20.09 ± 2.57 × 10^3 M^−1 | number of binding sites n [5]: 0.96 ± 0.03 | Changes in MC540 fluorescence intensity relative to the control ([6]; 1 µM): 3.27±0.12% | Changes in MC540 fluorescence intensity relative to the control ([6]; 5 µM): 5.73±0.30% | Changes in MC540 fluorescence intensity relative to the control ([6]; 10 µM): 10.51±0.55% | Changes in MC540 fluorescence intensity relative to the control ([6]; 20 µM): 20.30±0.93% | Changes in MC540 fluorescence intensity relative to the control ([6]; 30 µM): 30.30±0.19% | Changes in MC540 fluorescence intensity relative to the control [6, 10]: 30.3 ± 0.2% | Changes in DPH anisotropy relative to the control ([7]; 1 µM): -6.55±0.37% | Changes in DPH anisotropy relative to the control ([7]; 5 µM): -6.14±0.25% | Changes in DPH anisotropy relative to the control ([7]; 10 µM): -6.03±0.39% | Changes in DPH anisotropy relative to the control ([7]; 20 µM): -6.20±0.38% | Changes in DPH anisotropy relative to the control ([7]; 30 µM): -6.30±0.39% | Changes in DPH anisotropy relative to the control ([8]; 1 µM): -10.78±0.24% | Changes in DPH anisotropy relative to the control ([8]; 5 µM): -12.62±0.18% | Changes in DPH anisotropy relative to the control ([8]; 10 µM): -10.40±0.13% | Changes in DPH anisotropy relative to the control ([8]; 20 µM): -7.80±0.10% | Changes in DPH anisotropy relative to the control ([8]; 30 µM): -6.27±0.05% | Kd [9]: 13.4 ± 3.05 µM | tD changes, times smaller than those caused by Pt3-glc (pHbApr-1-Neo plasmid DNA): more than 5 times | lifetime (LT) (pHbApr-1-Neo plasmid DNA; 0 < comp/bp < 2, decrease from 4.25 ns): about 2.25 ns | lifetime (LT), plateau (pHbApr-1-Neo plasmid DNA; 2 < comp/bp < 5): about 2.1 ns | decrease in the diffusion time (tD) (pHbApr-1-Neo plasmid DNA): 2.5 fold

COc1cc(-c2[o+]c3cc(O)cc(O)c3cc2O)cc(O)c1O [Pt, Petunidin]
Changes in TMA-DPH anisotropy relative to the control ([1]; 1 µM): -4.68±0.23% | Changes in TMA-DPH anisotropy relative to the control ([1]; 5 µM): -0.95±0.03% | Changes in TMA-DPH anisotropy relative to the control ([1]; 10 µM): -1.05±0.03% | Changes in TMA-DPH anisotropy relative to the control ([1]; 20 µM): 1.13±0.07% | Changes in TMA-DPH anisotropy relative to the control ([1]; 30 µM): 0.70±0.02% | Kd [2]: 10.4 ± 2.45 µM | Changes in MC540 fluorescence intensity relative to the control ([3]; 1 µM): 16.68±0.58% | Changes in MC540 fluorescence intensity relative to the control ([3]; 5 µM): 32.60±0.15% | Changes in MC540 fluorescence intensity relative to the control ([3]; 10 µM): 43.35±1.60% | Changes in MC540 fluorescence intensity relative to the control ([3]; 20 µM): 55.02±1.41% | Changes in MC540 fluorescence intensity relative to the control ([3]; 30 µM): 61.93±1.58% | Changes in MC540 fluorescence intensity relative to the control ([3]; 30 µM, listed as petunidin): 61.9 ± 1.6% | Changes in TMA-DPH anisotropy relative to the control ([4]; 1 µM): -5.05±0.11% | Changes in TMA-DPH anisotropy relative to the control ([4]; 5 µM): -4.34±0.09% | Changes in TMA-DPH anisotropy relative to the control ([4]; 10 µM): -2.97±0.04% | Changes in TMA-DPH anisotropy relative to the control ([4]; 20 µM): -5.53±0.11% | Changes in TMA-DPH anisotropy relative to the control ([4]; 30 µM): -5.92±0.33% | Stern Volmer constant KSV [5]: 25.99 ± 1.77 × 10^3 M^−1 | number of binding sites n [5]: 1.03 ± 0.03 | Changes in MC540 fluorescence intensity relative to the control ([6]; 1 µM): 17.63±1.11% | Changes in MC540 fluorescence intensity relative to the control ([6]; 5 µM): 36.62±1.63% | Changes in MC540 fluorescence intensity relative to the control ([6]; 10 µM): 50.22±5.62% | Changes in MC540 fluorescence intensity relative to the control ([6]; 20 µM): 64.46±7.12% | Changes in MC540 fluorescence intensity relative to the control ([6]; 30 µM): 72.51±3.32% | Changes in MC540 fluorescence intensity relative to the control ([6]; 30 µM, listed as petunidin): 72.5 ± 3.3% | highest percentage of an increase in DPH anisotropy relative to the control ([7]; RBCM liposome, 20 µM): 10.5 ± 0.7% | Changes in DPH anisotropy relative to the control ([7]; 1 µM): -9.91±0.36% | Changes in DPH anisotropy relative to the control ([7]; 5 µM): -8.46±0.42% | Changes in DPH anisotropy relative to the control ([7]; 10 µM): -10.18±0.39% | Changes in DPH anisotropy relative to the control ([7]; 20 µM): -10.51±0.67% | Changes in DPH anisotropy relative to the control ([7]; 30 µM): -9.21±0.62% | highest percentage of an increase in DPH anisotropy relative to the control ([8]; MM liposome, 20 µM): 17.6 ± 0.4% | Changes in DPH anisotropy relative to the control ([8]; 1 µM): -13.00±0.31% | Changes in DPH anisotropy relative to the control ([8]; 5 µM): -15.66±0.33% | Changes in DPH anisotropy relative to the control ([8]; 10 µM): -17.48±0.09% | Changes in DPH anisotropy relative to the control ([8]; 20 µM): -17.59±0.36% | Changes in DPH anisotropy relative to the control ([8]; 30 µM): -14.74±0.10% | Kd [9]: 15.3 ± 4.01 µM | lifetime (LT) (pHbApr-1-Neo plasmid DNA; comp/bp from 0 to 5, continuous decrease from 4.25 ns): 2.3 ns | Particle Number (PN) (pHbApr-1-Neo plasmid DNA; comp/bp from 0 to 5, continuous decrease from 5.0): about 0 | changes in plasmid tD, lower compared to those obtained for Pt 3-glc (pHbApr-1-Neo plasmid DNA; comp/bp up to 0.8): ~3.5 fold | decrease in the diffusion time (tD) (pHbApr-1-Neo plasmid DNA): 3.5 fold
